From ChEMBL document CHEMBL1151367, “Catharanthus alkaloids. XXXVI. Isolation of vincaleukoblastine (VLB) and periformyline from Catharanthus trichophyllus and pericyclivine from Catharanthus roseus” (1981)
In brackets after ≈: the same amount, converted by molar mass.

Experiments:
[1] = system: P388; test: Cytotoxicity against mouse P388 cells; format: functional; conditions: read-out: ED50 (the source's name)
[2] = Cytotoxicity against human 9KB cells; format: functional; conditions: read-out: ED50 (the source's name)

Row | Compound | EC50 [1] [µg/mL] | EC50 [2] [µg/mL]
1 | C/C=C1/CN2CC[C@]34C(=C(C(=O)OC)[C@H]1C[C@H]23)Nc1ccccc14 [AKUAMMICINE] | 1.7 (≈ 5.27 µM) | 2.4 (≈ 7.44 µM)
2 | CC[C@]12CN3CCc4c([nH]c5ccccc45)[C@@](C(=O)OC)(c4cc5c(cc4OC)N(C)[C@H]4[C@@](O)(C(=O)OC)[C@H](OC(C)=O)[C@]6(CC)C=CCN7CC[C@]54[C@@H]76)C[C@H](C3)[C@H]1O2 [LEUROSINE] | 1.7 (≈ 2.1 µM) | 2.4 (≈ 2.97 µM)
3 | CC[C@]1(O)C[C@@H]2CN(CCc3c([nH]c4ccccc34)[C@@](C(=O)OC)(c3cc4c(cc3OC)N(C)[C@H]3[C@@](O)(C(=O)OC)[C@H](OC(C)=O)[C@]5(CC)C=CCN6CC[C@]43[C@@H]65)C2)C1 [VINBLASTINE] | 1.7 (≈ 2.1 µM) | 2.4 (≈ 2.96 µM)
